Assay results: BigSolDB 2.1

CCOC(=O)C1=C[C@]2(CC)CCCN3CCc4c(n1c1ccccc41)[C@@H]32
solubility (mole fraction)
Conditions | in 2-butanone | in cyclohexane | in ethanol | in ethyl acetate | in isopropanol | in methanol | in methyl acetate | in n-butanol | in n-propanol
283.15 K | 0.00526 | 0.00133 | 0.000492 | 0.0039 | 0.000345 | 0.000378 | 0.00262 | 0.000936 | 0.000727
288.15 K | 0.00649 | 0.0017 | 0.000641 | 0.00481 | 0.000474 | 0.000476 | 0.00329 | 0.00127 | 0.00098
293.15 K | 0.00793 | 0.00216 | 0.00082 | 0.00585 | 0.000643 | 0.000608 | 0.00416 | 0.0017 | 0.00126
298.15 K | 0.00962 | 0.00274 | 0.00101 | 0.00718 | 0.000834 | 0.000736 | 0.00517 | 0.0022 | 0.00164
303.15 K | 0.0118 | 0.00346 | 0.00126 | 0.00879 | 0.00108 | 0.00089 | 0.00646 | 0.00285 | 0.00208
308.15 K | 0.0142 | 0.00433 | 0.00158 | 0.0106 | 0.00137 | 0.0011 | 0.00794 | 0.00374 | 0.00268
313.15 K | 0.017 | 0.00537 | 0.00197 | 0.0127 | 0.00184 | 0.00136 | 0.00973 | 0.0048 | 0.00343
318.15 K | 0.0203 | 0.00656 | 0.00245 | 0.0154 | 0.00245 | 0.00166 | 0.0121 | 0.00632 | 0.00435
323.15 K | 0.0239 | 0.00802 | 0.00302 | 0.0185 | 0.00323 | 0.00204 | 0.0148 | 0.00806 | 0.00528
